Our source for the TGI and GI50 values is PubChem BioAssay (NCI).

What all share (test): inhibition of tumour cell growth, NCI panel, 48 h
Assay [1] deals with BT-549 breast.
In assay [2] the test system is DU-145 prostate.
The subject of assay [3] is HOP-62 NSCLC.
Assay [4] deals with HT29 colon.
Assay [5] concerns LOX IMVI melanoma.
In assay [6] the test system is MCF7 breast.
For assay [7], the system named is MDA-MB-231 breast.
In assay [8] the test system is OVCAR-4 ovarian.
In assay [9] the test system is SK-MEL-2 melanoma.
The subject of assay [10] is RPMI-8226 leukemia.

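A five-concentration, 48-hour dose response in 96-well plates underlies each endpoint, interpolated linearly between surrounding concentrations. Here, GI50 denotes the concentration required for 50% inhibition of growth. TGI marks complete inhibition of growth.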 Where only a bound is given, the exact number is not on record here.

With `O=C1NC(O)c2ccccc2O1` (stereo not given), the TGI in assay [1], in [2], in [3], in assay [4], in assay [5] and in assay [6] was over 100 µM in each case. Further, the TGI in [7], in assay [8] and in [9] was over 100 µM each time.
As to `Nc1ncn(C2OC(COP(=O)(O)O)C(O)C2O)c(=O)n1` (stereo not given), the TGI in assay [1], in assay [2], in [3], in assay [4], in assay [5] and in assay [6] was over 100 µM in each case. In addition, the TGI in assay [7], in [8], in [10] and in [9] was over 100 µM in each case.
On to `COc1cccc(-n2ncc3c(N/N=C/c4ccc(C)cc4)ncnc32)c1`, for which the GI50 in assay [1] is over 25 µM; in [2] it was over 25 µM; in assay [3], over 25 µM; in [4], 1.89 µM; in assay [5], over 25 µM; in [6] it was 7.2 µM. In addition, the GI50 in assay [7], in assay [8], in [10] and in assay [9] was over 25 µM each time. Moreover, the TGI in [1], in [2], in assay [3], in [4], in [5] and in assay [6] was over 25 µM each time. Besides, the TGI in assay [7], in [8], in [10] and in assay [9] was over 25 µM throughout.
In the case of `O=C1OCC(c2ccc(O)cc2)=C1c1cc(O)c(O)c(O)c1`, the GI50 is over 100 µM in assay [1]; over 100 µM in [2]; 58.6 µM in assay [3]; over 100 µM in assay [4]; 32.6 µM in assay [5]; 77.5 µM in assay [6]. Moreover, the GI50 in assay [7] is over 100 µM; in assay [8], over 100 µM; in assay [10], 44.1 µM. Besides, the TGI in assay [1], in assay [2], in [3], in [4], in [5] and in assay [6] was over 100 µM throughout. The TGI in [7], in assay [8] and in [10] was over 100 µM each time.
Regarding `COc1cc2c3c(n(CCCCNC(=O)OC(C)(C)C)c(=O)c2cc1OC)-c1cc2c(cc1C3=O)OCO2`, the GI50 in assay [1] is over 100 µM; in assay [2], over 100 µM; in assay [3], 28.1 µM; in [4], over 100 µM; in [5], over 100 µM; in [6] it was 5.15 µM. Also, the GI50 in assay [7], in [8] and in [9] was over 100 µM throughout. The TGI in assay [1], in assay [2], in assay [3], in [4], in [5] and in assay [6] was over 100 µM each time. The TGI in assay [7], in assay [8] and in assay [9] was over 100 µM in each case.
On to `O=C(Nc1ccc2ncnc(Nc3ccc(Oc4cccc(F)c4)c(Cl)c3)c2c1)c1ccc(CN2CCOCC2)cc1`, for which the GI50 is 2.3 µM in [1]; 3.14 µM in assay [2]; 2.58 µM in assay [3]; 2.97 µM in [4]; 2.24 µM in assay [5]; 1.83 µM in assay [6]. Also, the GI50 is 2.68 µM in [7], 2.53 µM in assay [8] and 2.27 µM in assay [9]. Further, the TGI in assay [1] is 7.56 µM; in assay [2] it was 15.8 µM; in assay [3], 8.47 µM; in assay [4] it was 11.7 µM; in assay [5], 5.33 µM; in assay [6], 5.64 µM. Besides, the TGI in assay [7] worked out at 9.03 µM; in [8], 8.52 µM; in [9], 5.46 µM.
As for `O=C1CSC(c2ccc(-c3nc4ccccc4[nH]3)cc2)=N1`, the GI50 in assay [1] was 42.4 µM; in [2] it was 31.4 µM; in assay [3], over 50 µM; in assay [5], 15.7 µM; in assay [6], 8.89 µM; in [7] it was over 50 µM. Moreover, the GI50 in [10] was 11.7 µM; in assay [9] it was 19 µM. For the same compound, the TGI in assay [1], in assay [2], in assay [3], in assay [5], in [6] and in assay [7] was over 50 µM throughout. Also, the TGI in assay [10] and in assay [9] was over 50 µM in each case.
For `COC(NC(N)=O)C(=O)O` (stereo not given), the TGI in assay [1], in assay [2], in assay [3], in [4], in assay [6] and in [7] was over 100 µM in each case. The TGI in assay [8], in assay [10] and in assay [9] was over 100 µM in each case.
Regarding `O=C(O)CNc1ccc(Cl)c(Cl)c1`, the TGI was over 100 µM in assay [1]; over 100 µM in [2]; 86.1 µM in [3]; over 100 µM in assay [4]; over 100 µM in [5]; 38.7 µM in [6]. Moreover, the TGI was over 100 µM in assay [7], over 100 µM in assay [8] and 55.2 µM in assay [10].
With `COc1cc(-c2nn(-c3cccc(NC(=O)NCCNS(=O)(=O)c4ccc(Cl)cc4)c3)cc2-c2ccncc2)ccc1Cl`, the GI50 in [1] is 1.23 µM; in [2], 0.956 µM; in [3], 1.08 µM; in assay [4] it was 0.37 µM; in [5] it was 0.559 µM; in assay [6], 0.363 µM. For the same compound, the GI50 in assay [7] was 1.51 µM; in assay [8], 1.03 µM; in assay [9], 0.629 µM. In addition, the TGI in assay [1] was 5.14 µM; in [2] it was over 100 µM; in assay [3], 33 µM; in assay [4], 1.51 µM; in assay [5] it was 2.46 µM; in assay [6], over 100 µM. For the same compound, the TGI in assay [7] was 4.38 µM; in assay [8] it was 92 µM; in assay [9], 2.81 µM.
